Tests used:
Type in all cases: cell-based, human
imDAPs [1] = assay: qRT-PCR analysis of imDAP-specific markers during expansion; settings: 3 μM CHIR99021 vs 0 and 1.25 μM; 5 days expansion
Method: 1. For qRT-PCR analysis of mRNA gene expression, RNA should be harvested from at least 2×10^6 cells.
2. Harvest cells, add 350 μl of buffer RLT+1% (vol/vol) β-mercaptoethanol to the well, transfer the lysate to a 1.5 ml tube, and put it immediately on ice.
3. Perform RNA extraction using the Tiangen Kit (DP430), and follow the manufacturer's protocol ‘Purification of total RNA from animal and human cells’.
4. When the RNA extraction was completed, determine the RNA concentration using a Nanodrop instrument.
5. Perform the first-strand cDNA synthesis reaction with lug of RNA using the HiScript™ II Q RT SuperMIX for qPCR (+gDNA wiper) Kit (Vazyme, #R223-01) for RT-qPCR. Follow the manufacturer's ‘First-Strand cDNA Synthesis’ protocol. This reaction would yield a 20μl product.
6. […]
8. Analyze the samples by running a quantitative PCR on the LightCycler 480 instrument using a 40× cycle two-step protocol with a 60° C., 60 sec annealing/elongation step and a 95° C., 30 sec denaturation step. […]
imDAPs were produced according to the method described in CN201910169525.0. […] When imDAPs reach 100% confluence (4-5 days), cells were passaged enzymatically with 1× TrypLE, centrifuged at 250 g for 5 minutes, counted and replaced on new VTN-coated plates (1 μg/cm^2) at a density of 1×10^5 cells/cm^2 in the expansion medium. imDAPs were continuously expanded for 6 passages. […]

imDAPs [2] = assay: imDAP maturation, cell morphology and adhesion (bright-field); settings: 1 μM IWR1 for at least 3 days vs without; VTN-coated; 1% HhPLT medium
Method: were produced according to the method described in CN201910169525.0, and expanded as described in Example 10. The expanded […] were seeded on VTN-coated (1 μg/cm^2) plates at a density of 5×10^5 cells/cm^2 (Day 0), and cultured in the maturation medium ([…]) supplemented with 1 μM IWR1. MM-P used in Example 11 contained the following components: NeurobasalTM medium, 1% (v/v) Glutamax, 0.5 mM Db-cAMP sodium salt, 200 μM ascorbic acid, 20 ng/ml BDNF, 20 ng/ml GDNF, 1 ng/ml TGF-β3, 10 μM DAPT, hPLT (0.5%, 1%, 2%). MM-H used in Example 11 contained the following components: NeurobasalTM medium, 1% (v/v) Glutamax, 0.5 mM Db-cAMP sodium salt, 200 μM ascorbic acid, 20 ng/ml BDNF, 20 ng/ml GDNF, 1 ng/ml TGF-β3, […], HhPLT (0.5%, 1%, 2%). MM-B used in Example 11 contained the following components: Neurobasal, 1% (v/v) Glutamax, 0.5 mM Db-cAMP sodium salt, 200 μM ascorbic acid, 20 ng/ml BDNF, 20 ng/ml GDNF, 1 ng/ml TGF-β 3, 10 μM DAPT, 2% (v/v) B27 (50×) (as control). The above HhPLT was produced from hPLT as follows. The hPLT was centrifuged at 3000 g for 30 min at 4° C. to obtain the supernatant, which was heated to 56° C. for 30 min. […] Cells were collected and counted by Vi-cell cytometer. The cells were analyzed by RT-qPCR for EN1, LMX1A, FOXA2, NURR1, SOX6 and TH gene expression. […]

imDAPs [3] = assay: qRT-PCR analysis of mDA maturation associated markers; settings: 1 μM IWR1 vs without IWR1; day 7
Method: 1. For qRT-PCR analysis of mRNA gene expression, RNA should be harvested from at least 2×10^6 cells. 2. Harvest cells, add 350 μl of buffer RLT+1% (vol/vol) β-mercaptoethanol to the well, transfer the lysate to a 1.5 ml tube, and put it immediately on ice. 3. Perform RNA extraction using the Tiangen Kit (DP430), and follow the manufacturer's protocol 'Purification of total RNA from animal and human cells'. 4. When the RNA extraction was completed, determine the RNA concentration using a Nanodrop instrument. 5. Perform the first-strand cDNA synthesis reaction with lug of RNA using the HiScriptTM II Q RT SuperMIX for qPCR (+gDNA wiper) Kit (Vazyme, #R223-01) for RT-qPCR. Follow the manufacturer's 'First-Strand cDNA Synthesis' protocol. This reaction would yield a 20μl product. 6. Dilute the 10 μl cDNA product in 80 μl of nuclease-free water. 7. […] Analyze the samples by running a quantitative PCR on the LightCycler 480 instrument using a 40× cycle two-step protocol with a 60° C., 60 sec annealing/elongation step and a 95° C., 30 sec denaturation step. […] Cells were collected and counted by Vi-cell cytometer. The cells were analyzed by RT-qPCR for EN1, LMX1A, FOXA2, NURR1, SOX6 and TH gene expression. […]

| Compound | mDAP marker expression (EN1, LMX1A, FOXA2), qRT-PCR (FIG. 1C) (imDAPs [1]) | cell morphology on day 7 during maturation (FIG. 7D) (imDAPs [2]) | expression of NURR1, SOX6 and TH, qRT-PCR (FIG. 7E) (imDAPs [3]) |
| --- | --- | --- | --- |
| Cc1cnc(-c2cnc(NCCNc3ccc(C#N)cn3)nc2-c2ccc(Cl)cc2Cl)[nH]1 [CHIR99021] | allowed better maintenance of mDAP marker expression | – | – |
| O=C(Nc1cccc2cccnc12)c1ccc(N2C(=O)[C@@H]3[C@H](C2=O)[C@@H]2C=C[C@H]3C2)cc1 [IWR1] | – | showed more obvious neural fibers | increased |

From patent US20240327787A1, “CULTURE MEDIUM, COATING MATRIX AND METHOD FOR EXPANDING MIDBRAIN DOPAMINERGIC PROGENITOR CELLS” (NUWACELL BIOTECHNOLOGIES CO., LTD., priority 2022, published 2024)
